Measured values as given in patent publication US11472803B2, “7-substituted 1-aryl-naphthyridine-3-carboxylic acid amides and use thereof” (Bayer Aktiengesellschaft, priority 2016, dated 2022).

Tests used:
human M2 receptor [1] = molecular target: T1, human M2 receptor (Homo sapiens, UniProt P08172); experiment: Functional M2-GIRK1/4 activation test: positive cooperativity (α factor), shift of acetylcholine dose-response curve; assay type: cell-based; conditions: Allosteric EC50 shift of acetylcholine 8-point dose-response curve; CHO-DUKX-M2-GIRK cells; α>1 = positive cooperativity
T1 construct: expressed in transfected cells; host or cells: CHO-DUKX (CHO-DUKX-M2-GIRK)
T1 sequence (P08172 1-466): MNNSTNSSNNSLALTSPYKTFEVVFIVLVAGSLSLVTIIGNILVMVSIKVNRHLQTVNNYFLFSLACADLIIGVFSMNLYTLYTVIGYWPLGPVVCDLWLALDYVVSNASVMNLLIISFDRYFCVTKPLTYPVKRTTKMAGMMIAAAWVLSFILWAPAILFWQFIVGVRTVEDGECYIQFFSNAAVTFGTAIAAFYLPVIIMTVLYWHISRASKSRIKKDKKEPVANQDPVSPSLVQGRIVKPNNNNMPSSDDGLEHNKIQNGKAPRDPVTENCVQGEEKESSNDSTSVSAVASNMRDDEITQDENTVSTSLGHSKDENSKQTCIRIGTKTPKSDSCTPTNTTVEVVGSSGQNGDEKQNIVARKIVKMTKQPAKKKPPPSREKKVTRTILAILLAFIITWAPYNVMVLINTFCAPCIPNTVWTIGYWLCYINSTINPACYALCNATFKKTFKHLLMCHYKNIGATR
Description: The binding of orthosteric agonists (endogenous ligand: acetylcholine) to the M2 receptor leads to receptor activation or a change in conformation of the receptor in the manner of a shift in equilibrium in favour of the active receptor conformation.
The agonist-induced change in conformation of the M2 receptor results in a Gαi protein activation. […] Under physiological conditions, the result is then a selective efflux of potassium from the cell along the electrochemical gradient. […] The extent of hyperpolarization can therefore be regarded as a measure of the activation of the M2 receptor.
The test cell used is a recombinant CHO-DUKX cell line which has been stably transfected with cDNA coding for the human M2 receptor and with cDNA coding for both GIRK1/4 subunits (CHO-DUKX-M2-GIRK). The transmembrane potential, or the relative changes in the transmembrane potential as a function of substance addition or M2 activation, is determined by means of a voltage-sensitive dye (FLIPR Membrane Potential Assay Kit Blue, Molecular Devices #R8034) and the measurement of cell fluorescence using a proprietary fluorescence imaging instrument.
In accordance with the desired test concentrations, the substances were pre-diluted in loading buffer (see above).
The sowing medium consisted of MEM alpha medium (supplemented with 5% PCS, 2% Glutamax, no genticin).
For the particular measurement, the medium was removed and the cells were laden with the volt-age-sensitive dye for at least 6 min at room temperature (30 μl of loading buffer per 384-well). This was followed, in a first measurement, by the determination of the resting transmembrane potential for a period of 5 sec in 1 sec increments. Thereafter, 10 μl in each case of the test substances diluted in loading buffer are added, followed by a second measurement to determine the transmembrane potential for a period of 50 sec in 1 sec increments.
Finally, the cells are admixed with 10 μl of agonist solution (acetylcholine dissolved in loading buffer). In contrast to the EC50 determination of the test substances (see B-1.1), however, this is not done using one acetylcholine concentration; instead, every concentration of the test substance is combined with an acetylcholine 8-point dose-response curve. […] The M2-mediated GIRK1/4 activation or hyperpolarization is then monitored in a third measurement over a period of 60 sec in 1 sec increments. The shift in the acetylcholine dose-response curve in the presence of increasing concentrations of the test substance is analysed and quantified by means of GraphPad PRISM (Allosteric EC50 shift). […] Positive cooperativity is the hallmark of a positive allosteric modulator. […] The greater the magnitude of the α value, the greater the extent of cooperativity between orthosteric and allosteric.

human M2 receptor [2] = molecular target: T1, human M2 receptor; experiment: Functional M2-GIRK1/4 activation test: allosteric potency (EC50) and efficiency at EC20 acetylcholine; assay type: cell-based; conditions: CHO-DUKX-M2-GIRK cells; for EC50: voltage-sensitive dye, acetylcholine at EC20, in some cases mean of two or more determinations; for Emax / Efficiency: boosting of the acetylcholine effect at EC20 acetylcholine concentration
Procedure, shortened: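 CHO-DUKX cells stably expressing human M2 and GIRK1/4; membrane potential tracked with voltage-sensitive dye at room temperature. Compound added 50 s before acetylcholine at its EC20, then hyperpolarization read 60 s. EC50 (allosteric potency) and efficiency (boost of EC20 ACh effect) from 4-parameter Hill fit.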

## CCN(CC(C)O)c1nc2c(cc1F)c(=O)c(C(=O)N[C@@H](C1CC1)C(F)(F)F)cn2-c1c(F)cc(F)cc1F (mixture of isomers) [Example 65, N-[(1S)-1-Cyclopropyl-2,2,2-trifluoroethyl]-7-[ethyl(2-hydroxypropyl)amino]-6-fluoro-4-oxo-1-(2,4,6-trifluorophenyl)-1,4-dihydro-1,8-naphthyridine-3-carboxamide]
Human M2 receptor [1]
  Cooperativity (alpha factor): 14
Human M2 receptor [2]
  EC50: 30 nM
  Emax: 89%

## CC(NC(=O)c1cn(-c2c(F)cc(F)cc2F)c2nc(N3CC[C@H](O)C3)c(F)cc2c1=O)C(F)(F)C(F)(F)F (mixture of isomers) [Example 112, 6-Fluoro-7-[(3S)-3-hydroxypyrrolidin-1-yl]-4-oxo-N-[3,3,4,4,4-pentafluorobutan-2-yl]-1-(2,4,6-trifluorophenyl)-1,4-dihydro-1,8-naphthyridine-3-carboxamide]
Human M2 receptor [1]
  Cooperativity (alpha factor): 33
Human M2 receptor [2]
  EC50: 4.25 nM
  Emax: 100%

## CC(NC(=O)c1cn(-c2c(F)cc(F)cc2F)c2nc(N3CC(CO)(CO)C3)c(F)cc2c1=O)C(F)(F)C(F)(F)F (racemic) [Example 169, 7-[3,3-Bis(hydroxymethyl)azetidin-1-yl]-6-fluoro-4-oxo-N-[3,3,4,4,4-pentafluorobutan-2-yl]-1-(2,4,6-trifluorophenyl)-1,4-dihydro-1,8-naphthyridine-3-carboxamide]
Human M2 receptor [1]
  Cooperativity (alpha factor): 34
Human M2 receptor [2]
  EC50: 3.8 nM
  Efficiency: 99%

## CC(NC(=O)c1cn(-c2c(F)cc(F)cc2F)c2nc(N3CC(CO)(CO)C3)c(F)cc2c1=O)C(F)(F)C(F)(F)F (racemic) [Example 170, 7-[3,3-Bis(hydroxymethyl)azetidin-1-yl]-6-fluoro-4-oxo-N-[3,3,4,4,4-pentafluorobutan-2-yl]-1-(2,4,6-trifluorophenyl)-1,4-dihydro-1,8-naphthyridine-3-carboxamide]
Human M2 receptor [1]
  Cooperativity (alpha factor): 38
Human M2 receptor [2]
  EC50: 8.1 nM
  Efficiency: 100%

## CCC(NC(=O)c1cn(-c2c(F)cc(F)cc2F)c2nc(N3CC(CO)(CO)C3)c(F)cc2c1=O)C(F)(F)C(F)(F)F (racemic) [Example 172, 7-[3,3-Bis(hydroxymethyl)azetidin-1-yl]-6-fluoro-4-oxo-N-[1,1,1,2,2-pentafluoropentan-3-yl]-1-(2,4,6-trifluorophenyl)-1,4-dihydro-1,8-naphthyridine-3-carboxamide]
Human M2 receptor [1]
  Cooperativity (alpha factor): 35
Human M2 receptor [2]
  EC50: 3.3 nM
  Efficiency: 94%

## CCC(NC(=O)c1cn(-c2c(F)cc(F)cc2F)c2nc(N3CC(CO)(CO)C3)c(F)cc2c1=O)C(F)(F)C(F)(F)F (racemic) [Example 173, 7-[3,3-Bis(hydroxymethyl)azetidin-1-yl]-6-fluoro-4-oxo-N-[1,1,1,2,2-pentafluoropentan-3-yl]-1-(2,4,6-trifluorophenyl)-1,4-dihydro-1,8-naphthyridine-3-carboxamide]
Human M2 receptor [1]
  Cooperativity (alpha factor): 39
Human M2 receptor [2]
  EC50: 2.5 nM
  Efficiency: 99%

## CC(NC(=O)c1cn(-c2c(F)cc(F)cc2F)c2nc(N3C[C@@H](O)[C@H](O)C3)c(F)cc2c1=O)C(F)(F)C(F)(F)F (single isomer, unassigned) [Example 9]
Human M2 receptor [1]
  Cooperativity (alpha factor): 39
Human M2 receptor [2]
  Emax: 91%

## CC(NC(=O)c1cn(-c2c(F)cc(F)cc2F)c2nc(N3C[C@@H](O)[C@H](O)C3)c(F)cc2c1=O)C(F)(F)C(F)(F)F (single isomer, unassigned) [Example 10]
Human M2 receptor [1]
  Cooperativity (alpha factor): 70

## CCC(COC(F)(F)F)NC(=O)c1cn(-c2c(F)cc(F)cc2F)c2nc(N3C[C@@H](O)[C@H](O)C3)c(F)cc2c1=O (single isomer, unassigned) [Example 31]
Human M2 receptor [1]
  Cooperativity (alpha factor): 37
Human M2 receptor [2]
  EC50: 4.15 nM
  Emax: 100%

## CCC(COC(F)(F)F)NC(=O)c1cn(-c2c(F)cc(F)cc2F)c2nc(N3C[C@@H](O)[C@H](O)C3)c(F)cc2c1=O (single isomer, unassigned) [Example 32]
Human M2 receptor [1]
  Cooperativity (alpha factor): 54
Human M2 receptor [2]
  EC50: 4.3 nM
  Efficiency: 100%

## CC(NC(=O)c1cn(-c2ncc(F)cc2F)c2nc(N3CC(O)C(O)C3)c(F)cc2c1=O)C(F)(F)C(F)(F)F (single isomer, unassigned) [Example 45]
Human M2 receptor [1]
  Cooperativity (alpha factor): 62
Human M2 receptor [2]
  EC50: 8.47 nM
  Emax: 100%

## CC[C@H](NC(=O)c1cn(-c2c(F)cc(F)cc2Cl)c2nc(N3C[C@@H](O)[C@H](O)C3)c(F)cc2c1=O)C(F)(F)F (single isomer, unassigned) [Example 48]
Human M2 receptor [1]
  Cooperativity (alpha factor): 42
Human M2 receptor [2]
  EC50: 1.8 nM
  Efficiency: 78%

## O=C(N[C@@H](C1CC1)C(F)(F)F)c1cn(-c2c(F)cc(F)cc2Cl)c2nc(N3CC(CO)(CO)C3)c(F)cc2c1=O (single isomer, unassigned) [Example 71]
Human M2 receptor [1]
  Cooperativity (alpha factor): 26
Human M2 receptor [2]
  EC50: 4.2 nM
  Efficiency: 94%

## CC(NC(=O)c1cn(-c2c(F)cc(F)cc2F)c2nc(N3C[C@@H](O)[C@@H](O)C3)c(F)cc2c1=O)C(F)(F)C(F)(F)F (single isomer, unassigned) [Example 94]
Human M2 receptor [1]
  Cooperativity (alpha factor): 34
Human M2 receptor [2]
  Emax: 100%

## CC(NC(=O)c1cn(-c2c(F)cc(F)cc2F)c2nc(N3CC[C@H](O)C3)c(F)cc2c1=O)C(F)(F)C(F)(F)F (single isomer, unassigned) [Example 113]
Human M2 receptor [1]
  Cooperativity (alpha factor): 35
Human M2 receptor [2]
  EC50: 2 nM
  Emax: 100%

## CC(C)(NC(=O)c1cn(-c2c(F)cc(F)cc2Cl)c2nc(N3C[C@@H](O)[C@H](O)C3)c(F)cc2c1=O)C(F)F (single isomer, unassigned) [Example 143]
Human M2 receptor [1]
  Cooperativity (alpha factor): 40
Human M2 receptor [2]
  EC50: 1.5 nM
  Efficiency: 94%

## CC(NC(=O)c1cn(-c2c(F)cc(F)cc2F)c2nc(N3CCC(O)C(O)C3)c(F)cc2c1=O)C(F)(F)C(F)(F)F (single isomer, unassigned) [Example 182, 7-(3,4-Dihydroxypiperidin-1-yl)-6-fluoro-4-oxo-N-(3,3,4,4,4-pentafluorobutan-2-yl)-1-(2,4,6-trifluorophenyl)-1,4-dihydro-1,8-naphthyridine-3-carboxamide]
Human M2 receptor [1]
  Cooperativity (alpha factor): 27
Human M2 receptor [2]
  EC50: 8.8 nM
  Emax: 100%

## CC(NC(=O)c1cn(-c2c(F)cc(F)cc2F)c2nc(N3CCC[C@@H]3CO)c(F)cc2c1=O)C(F)(F)C(F)(F)F (single isomer, unassigned) [Example 184]
Human M2 receptor [1]
  Cooperativity (alpha factor): 24
Human M2 receptor [2]
  EC50: 4.5 nM
  Emax: 90%

## CC(NC(=O)c1cn(-c2c(F)cc(F)cc2F)c2nc(N3CCCC[C@@H]3CO)c(F)cc2c1=O)C(F)(F)C(F)(F)F (single isomer, unassigned) [Example 185]
Human M2 receptor [1]
  Cooperativity (alpha factor): 13
Human M2 receptor [2]
  EC50: 6.4 nM
  Emax: 83%

## CC(NC(=O)c1cn(-c2c(F)cc(F)cc2F)c2nc(N3CCC(O)(CO)CC3)c(F)cc2c1=O)C(F)(F)C(F)(F)F (single isomer, unassigned) [Example 186, 6-Fluoro-7-[4-hydroxy-4-(hydroxymethyl)piperidin-1-yl]-4-oxo-N-[3,3,4,4,4-pentafluorobutan-2-yl]-1-(2,4,6-trifluorophenyl)-1,4-dihydro-1,8-naphthyridine-3-carboxamide]
Human M2 receptor [1]
  Cooperativity (alpha factor): 20
Human M2 receptor [2]
  EC50: 5.8 nM
  Emax: 87%
